{"source": "patent US20230364119A1", "about": "“AUTOPHAGY ACTIVATOR” (Resonac Corporation, priority 2020, published 2023)", "format_in_all_cases": "cell-based", "key": {"LC3 gene": {"system": "LC3 gene", "assay": "LC3 gene expression promoting effect in human neuroblastoma in the presence of amyloid β", "method": "(§1) In the presence of an autophagy activator, the expression levels of the LC3 gene, ATG5 gene, and Beclin 1 gene in human neuroblastoma (SH-SY5Y; obtained from ATCC) were measured by the following test method, and the effect of promoting the expression of the LC3 gene, ATG5 gene, and Beclin 1 gene by an autophagy activator was evaluated.\n(§2) In the following examples and comparative examples, tests were performed by adding amyloid β, which is known to cause a decrease in autophagy in nerve cells, to each medium.\n(§3) SH-SY5Y cells were prepared at a seeding density of 10000 cells/cm^2 and cultured for 24 hours in D-MEM medium/Ham's F-12 medium (manufactured by Sigma-Aldrich) to which 10% fetal bovine serum (manufactured by MP Biomedicals) was added. Next, in Example 15, the inositol derivative A dissolved in purified water was added to the medium such that the final concentration of the inositol derivative A was 10-4% (V/V). […]\n(§4) Then, using Nucleospin (registered trademark) RNA kit (manufactured by Takara Bio Inc.), RNA was extracted from SH-SY5Y cells in each example, and cDNA was synthesized from the obtained RNA. Next, using this cDNA as a template, by quantitative real-time PCR, the expression level of each gene was quantified using primers (manufactured by Takara Bio Inc.) specific to the LC3 gene, ATG5 gene, and Beclin 1 gene, respectively. […]"}, "ATG5 gene [1]": {"system": "ATG5 gene", "assay": "ATG5 gene expression promoting effect in human senescent fibroblasts (quantitative real-time PCR)", "method": "Senescent fibroblasts were prepared by the following procedure.\nNormal human fibroblasts (NB1RGB, RIKEN BRC Cell Bank) were cultured until confluent in D-MEM medium (manufactured by Sigma-Aldrich) to which 10% fetal bovine serum (manufactured by MP Biomedicals) was added. Thereafter, the cells were treated with 250 μM aqueous hydrogen peroxide for 2 hours, and cultured for 24 hours in D-MEM medium to which fresh 10% fetal bovine serum was added. The treatment with aqueous hydrogen peroxide and the cell culture operation were repeated three times, and the obtained fibroblasts were used as senescent fibroblasts.\nThe prepared senescent fibroblasts were prepared at a seeding density of 10000 cells/cm^2 and cultured for 24 hours in D-MEM medium (manufactured by Sigma-Aldrich) to which 10% fetal bovine serum (manufactured by MP Biomedicals) was added. […]\nas §4, with “senescent fibroblasts or normal human fibroblasts” for “SH-SY5Y cells”"}, "Beclin 1 gene": {"system": "Beclin 1 gene", "assay": "Beclin 1 gene expression promoting effect in human neuroblastoma in the presence of amyloid β", "method": "as §1, §2, §3, §4"}, "ATG5 gene [2]": {"system": "ATG5 gene", "assay": "ATG5 gene expression promoting effect in human neuroblastoma in the presence of amyloid β", "method": "as §1, §2, §3, §4"}, "[3]": {"conditions": "SH-SY5Y cells with amyloid β, compared to Reference Example 3 (purified water only, no amyloid β)"}, "[4]": {"conditions": "SH-SY5Y cells, 20 μM amyloid β present, 48 hours, 10^−3% (V/V) inositol or inositol derivative A, with the vitamin derivative of the example where added, Reference Example 3 (purified water, no amyloid β) = 1.00"}}}
{"smiles": "O[C@H]1[C@H](O)[C@@H](O)[C@H](O)[C@@H](O)[C@H]1O", "note": "[Comparative Example 2, myo-inositol]", "values": [{"measurement": "expression level of the LC3 gene, in words", "setting": "LC3 gene; [3]", "result": "slightly increased"}, {"measurement": "Relative gene expression level LC3", "setting": "LC3 gene; [4]", "result": 1.41}, {"measurement": "Relative gene expression level ATG5", "setting": "ATG5 gene [1]; 24 hours, 10^−3% (V/V) inositol or inositol derivative A, with the vitamin derivative of the example where added, GAPDH-standardized, Comparative Example 1 (purified water) = 1.00", "result": 1.21}, {"measurement": "expression level of the ATG5 gene, in words", "setting": "ATG5 gene [1]; compared to Comparative Example 1 (purified water only)", "result": "more increased"}, {"measurement": "expression level of the Beclin 1 gene, in words", "setting": "Beclin 1 gene; [3]", "result": "slightly increased"}, {"measurement": "Relative gene expression level Beclin 1", "setting": "Beclin 1 gene; [4]", "result": 1.31}, {"measurement": "expression level of the ATG5 gene, in words", "setting": "ATG5 gene [2]; [3]", "result": "slightly increased"}, {"measurement": "Relative gene expression level ATG5", "setting": "ATG5 gene [2]; [4]", "result": 1.39}]}
